Test results: patent publication US20240279233A1, “MACROCYCLIC TAK1 INHIBITORS” (Aqilion AB, priority 2021, published 2024)
Like-named read-outs stand apart in the source and are kept apart here.

Target: human recombinant TAK1-TAB1 Kinase (TAK1 (1-303) and TAB1 (437-end)) (Homo sapiens (Human), UniProt O43318)
Assay: TAK1 biochemical ADP-Glo kinase assay
Conditions: MBP substrate
Experimental: The usefulness of the example compounds of the invention as TAK1 inhibitors was evaluated in a biochemical ADP-Glo kinase assay. Assay kits from Promega Corporation V4089 were used according to manufacturer's instructions and adapted as outlined here. ADP-Glo Kinase Assay kit contains ADP-Glo Reagent, Kinase Detection Reagent, kinase detection buffer, ATP, and ADP. The Kinase Enzyme Systems include human recombinant TAK1-TAB1 Kinase (TAK1 (1-303) and TAB1 (437-end)), Native Swine Myelin Basic Protein (MBP) substrate, 5×kinase reaction buffer, and DTT.
Test compounds were prepared in 1:5 serial dilutions at 8 concentrations in DMSO from 10 mM stock solutions. An additional 20-fold dilution in 1× kinase reaction buffer (see below) was performed, yielding a final dilution series in kinase buffer with 5% DMSO (final concentration in assay from 20 μM to 0.26 nM, 1% DMSO). As controls, Takinib was prepared as positive control (3 μM final in assay), and DMSO without inhibitor served as negative control, at a final assay concentration of DMSO of 1%.
One μl of compound solution in 5% DMSO was added to each well in a 384 well microtiter plate (OptiPlate #6007290). Two μl TAK1-TAB1 (7.5 ng/μl) in lxkinase reaction buffer ([…] Tris base pH 7.5, 20 mM MgCl2, 50 μM DTT, 0.1 mg/ml BSA) was added and pre-incubated 10 min before adding 2 μl of a mixture of MBP substrate and ATP (0.25 μg/μL MBP/25 μM ATP or 0.25 μg/μL MBP/2.5 mM ATP) in 1× kinase reaction buffer (as above). The plate was subsequently incubated at room temperature for 1 hour. Then 5 μl ADP-Glo™ reagent from ADP-Glo™ kit (as above) was added and incubated for 40 min to stop the reaction and consume remaining ATP. Ten μl kinase detection substrate (dissolved in kinase detection buffer, both from ADP-Glo™ kit as above) was then added to convert ADP to ATP and detect ATP with luciferase/luciferin. The plate was incubated for 30 minutes at room temperature in dark before reading luminescence on an Envision (PerkinElmer) reader.
IC50 values of compounds of the invention were determined by the non-linear regression analysis of dose response curves.

[1] = 10 μM ATP, read-out: TAK1 Mean IC50 (nM) @ 10 μM ATP
[2] = 1 mM ATP, read-out: TAK1 Mean IC50 (nM) @ 1 mM ATP

human recombinant TAK1-TAB1 Kinase (TAK1 (1-303) and TAB1 (437-end)), sequence (O43318 other isoform, or with tags, fused parts or gaps): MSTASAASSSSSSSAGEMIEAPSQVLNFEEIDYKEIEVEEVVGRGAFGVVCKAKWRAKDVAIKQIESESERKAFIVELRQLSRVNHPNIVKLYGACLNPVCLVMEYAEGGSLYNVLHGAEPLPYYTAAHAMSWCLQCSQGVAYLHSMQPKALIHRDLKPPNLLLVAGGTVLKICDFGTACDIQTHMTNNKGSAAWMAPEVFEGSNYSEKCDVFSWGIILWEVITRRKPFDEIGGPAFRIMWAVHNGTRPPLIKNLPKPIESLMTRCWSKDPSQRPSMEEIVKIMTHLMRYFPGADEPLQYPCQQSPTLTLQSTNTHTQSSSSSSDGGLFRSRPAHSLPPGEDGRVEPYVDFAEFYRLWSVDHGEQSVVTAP

| IC50 [1] [nM] | IC50 [2] [nM] | SMILES |
| --- | --- | --- |
| 12 | – | CC1CCCCNC(=O)c2cccc(c2)C(=O)/N=C2\Nc3cccc(-c4cc[nH]c(=O)c4)c3N21 (single isomer, unassigned) [Example 62, (E)-11-methyl-1^7-(2-oxo-1,2-dihydropyridin-4-yl)-1^2,1^3-dihydro-1^1H-2,6-diaza-1(2,1)-benzo[d]imidazola-4(1,3)-benzenacycloundecaphane-3,5-dione] |
| 5 | 14 | C[C@H]1CCCCNC(=O)c2cccc(c2)C(=O)/N=C2\Nc3cccc(C(=O)N4CCC5(CCO5)C4)c3N21 (single isomer, unassigned) [Example 120] |
| – | 4 | C[C@H]1CCCCNC(=O)c2cccc(c2)C(=O)/N=C2\Nc3cccc(C(=O)N4CC(OC5CC5)C4)c3N21 [Example 107, (S,E)-1^7-(3-cyclopropoxyazetidine-1-carbonyl)-11-methyl-1^2,1^3-dihydro-1^1H-2,6-diaza-1(2,1)-benzo[d]imidazola-4(1,3)-benzenacycloundecaphane-3,5-dione] |
| 4 | 12 | C[C@H]1CCCCNC(=O)c2cccc(c2)C(=O)/N=C2\Nc3ccnc(N4CCC(F)C4=O)c3N21 (single isomer, unassigned) [Example 126] |
| 6 | – | CC1CCCCNC(=O)c2cccc(c2)C(=O)/N=C2\Nc3cccc(C(=O)N4CC[C@@H](F)C4)c3N21 (single isomer, unassigned) [Example 93] |
| 7 | 22 | C[C@H]1CCCCNC(=O)c2cccc(c2)C(=O)/N=C2\Nc3ccnc(N4CCCC4=O)c3N21 [Example 119, (S,E)-11-methyl-1^4-(2-oxopyrrolidin-1-yl)-1^2,1^3-dihydro-1^1H-2,6-diaza-1(2,3)-imidazo[4,5-c]pyridina-4(1,3)-benzenacycloundecaphane-3,5-dione] |
| 10 | 10 | Cc1nnc(-c2cccc3c2N2/C(=N/C(=O)c4cccc(c4)C(=O)NCCCCC2C)N3)o1 (single isomer, unassigned) [Example 132, (E)-11-methyl-1^7-(5-methyl-1,3,4-oxadiazol-2-yl)-1^2,1^3-dihydro-1^1H-2,6-diaza-1(2,1)-benzo[d]imidazola-4(1,3)-benzenacycloundecaphane-3,5-dione] |
| – | 24 | C[C@H]1CCCCNC(=O)c2cccc(c2)C(=O)/N=C2\Nc3cccc(C(=O)N4C[C@@H]5C[C@H]4CO5)c3N21 [Example 111, (S,E)-1^7-((1S,4S)-2-oxa-5-azabicyclo[2.2.1]heptane-5-carbonyl)-11-methyl-1^2,1^3-dihydro-1^1H-2,6-diaza-1(2,1)-benzo[d]imidazola-4(1,3)-benzenacycloundecaphane-3,5-dione] |
| 5 | 19 | C[C@H]1CCCCNC(=O)c2cccc(c2)C(=O)/N=C2\Nc3cccc(C(=O)N4CCC5(CCO5)C4)c3N21 (single isomer, unassigned) [Example 121] |
| – | 11 | C[C@H]1CCCCNC(=O)c2cccc(c2)C(=O)/N=C2\Nc3cccc(C(=O)N4CCC5(COC5)C4)c3N21 [Example 115, (S,E)-11-methyl-1^7-(2-oxa-6-azaspiro[3.4]octane-6-carbonyl)-1^2,1^3-dihydro-1^1H-2,6-diaza-1(2,1)-benzo[d]imidazola-4(1,3)-benzenacycloundecaphane-3,5-dione] |
| 3 | 14 | CC1CCCCNC(=O)c2cccc(c2)C(=O)Nc2nc3cccc(C(=O)N(C)C)c3n21 (single isomer, unassigned) [Example 31, (E)-N,N,11-trimethyl-3,5-dioxo-1^2,1^3-dihydro-1^1H-2,6-diaza-1(2,1)-benzo[d]imidazola-4(1,3)-benzenacycloundecaphane-1^7-carboxamide] |
| 8 | – | CC1CCCCNC(=O)c2cccc(c2)C(=O)/N=C2\Nc3cccc(-c4cc[nH]c(=O)c4)c3N21 (single isomer, unassigned) [Example 63, (E)-11-methyl-1^7-(2-oxo-1,2-dihydropyridin-4-yl)-1^2,1^3-dihydro-1^1H-2,6-diaza-1(2,1)-benzo[d]imidazola-4(1,3)-benzenacycloundecaphane-3,5-dione] |
